Series [1] in a line: Carotenoid content of Lycopene Suspension-supplemented diets after 7 months storage. In kind it is physicochemical. Conditions: for Carotenoid content of diet: stored at −20 °C for 7 months. As for the experimental part: When the Lycopene Suspension (Henkel Corporation, La Grange, Ill.) was extracted by organic extraction methods, the major carotenoid was lycopene, but a number of other carotenoids were known to be present in tomatoes, α- and β-Carotene, phytofluene and phytoene were also present (FIGS. 6 & 7). The quantitative profile of carotenoids in the Lycopene Suspension was carried out using an HPLC system as described above, equipped with a photodiode array detector. The six major components can be seen in Table 7.
(Table 10). Note that all the major carotenoids plus the lycopene metabolite present in the Lycopene Suspension are present in the diets in the same relative proportions. However, the net loss of lycopene over 7 months was 66%, 38%, 40%, 44% and 60%, in treatment groups 1-5, respectively; in contrast, β-carotene concentrations declined by only 10% of original values over the same time period.

Series [2] is described as follows: Carotenoid content of livers of rats fed supplemented diets.
Description: Breast, liver and prostate tissue contain lipids which interfere with the assay. Consequently, a saponification step was required prior to organic extraction. Tissue was homogenized in 20 ml methanol to which echinenone was added as internal standard. For breast tissue, which comprise of 85% adipocytes, 8.0 ml 50% NaOH and 4.0 ml 25% sodium ascorbate was added and the mixture was homogenized. For prostate and liver tissue, which contain less lipid, 4.0 ml and 50% NaOH. and 2.0 ml sodium ascorbate were added and the mixture was
homogenized. Saponification was carried out in 50 ml tubes saturated with N2 gas overnight in a temperature controlled shaker bath at 30° C. Following saponification, 10 ml hexane was add d to each tube and vortexed for 1 minute. The mixture was then centrifuged at 2000 rpm for 10 min at 4° C. and the hexane layer was decanted and saved. This hexane extraction procedure was repeated 5-7 times. The pooled hexane extract was then dried under N2 gas at 60° C., dissolved in injection solvent and analyzed by HPLC. Lung and colon tissue were processed in an identical manner with the exception that the saponification step was omitted.
Setting [3] is: female rats, Diet 1, 2.5 mM/kg diet.
Setting [4] is: female rats, Diet 2, 1.0 mM/kg diet.
Where [5] appears, read: female rats, Diet 3, 0.5 mM/kg diet.
Setting [6] is: female rats, Diet 4, 0.25 mM/kg diet.
[7] abbreviates: female rats, Diet 5, 0.10 mM/kg diet.
The mark [8] stands for this setting: male rats, Diet 1, 2.5 mM/kg diet.
Setting [9] is: male rats, Diet 2, 1.0 mM/kg diet.
Setting [10] is: male rats, Diet 3, 0.5 mM/kg diet.
Setting [11] is: male rats, Diet 5, 0.10 mM/kg diet.

Take `CC1=C(/C=C/C(C)=C/C=C/C(C)=C/C=C/C=C(C)/C=C/C=C(C)/C=C/C2=C(C)CCCC2(C)C)C(C)(C)CCC1` [β-carotene]: the “Carotenoid content of diet” value in series [1] (Diet 1, 2.5 mM/kg diet) is 284 μg/gm (ppm); in series [1] (Diet 2, 1.0 mM/kg diet), 138 μg/gm (ppm); in series [1] (Diet 3, 0.5 mM/kg diet), 69 μg/gm (ppm); in series [1] (Diet 4, 0.25 mM/kg diet) it was 37 μg/gm (ppm); in series [1] (Diet 5, 0.10 mM/kg diet) it was 8 μg/gm (ppm). In addition, in series [1] (diets, 7 months storage), the “decline of concentration from original values” amounted to 10%.

Take `CC(C)=CCC/C(C)=C/CC/C(C)=C/CC/C(C)=C/C=C/C=C(\C)CC/C=C(\C)CC/C=C(\C)CCC=C(C)C` [Phytoene]: the “Carotenoid content of diet” value in series [1] (Diet 1, 2.5 mM/kg diet) is 70 μg/gm (ppm); in series [1] (Diet 2, 1.0 mM/kg diet), 23 μg/gm (ppm); in series [1] (Diet 3, 0.5 mM/kg diet), 0.32 μg/gm (ppm); in series [1] (Diet 4, 0.25 mM/kg diet) it was 5 μg/gm (ppm); in series [1] (Diet 5, 0.10 mM/kg diet), 1 μg/gm (ppm). Also, the “Carotenoid content of liver” value in series [2] (setting [3]) is recorded as 66 μg/gm (ppm); in series [2] (setting [4]), 35 μg/gm (ppm); in series [2] (setting [5]), 40 μg/gm (ppm); in series [2] (setting [6]) it was 46 μg/gm (ppm); in series [2] (setting [7]) it was 38 μg/gm (ppm); in series [2] (setting [8]) it was 23 μg/gm (ppm). The “Carotenoid content of liver” value is listed as 4 μg/gm (ppm) in series [2] (setting [9]), 21 μg/gm (ppm) in series [2] (setting [10]) and 10 μg/gm (ppm) in series [2] (setting [11]).

Turning to `CC(C)=CCC/C(C)=C/CC/C(C)=C/C=C/C(C)=C/C=C/C=C(\C)CC/C=C(\C)CC/C=C(\C)CCC=C(C)C` [Phytofluene], the “Carotenoid content of diet” value in series [1] (Diet 1, 2.5 mM/kg diet) is 58 μg/gm (ppm); in series [1] (Diet 2, 1.0 mM/kg diet), 28 μg/gm (ppm); in series [1] (Diet 3, 0.5 mM/kg diet), 14 μg/gm (ppm); in series [1] (Diet 4, 0.25 mM/kg diet), 8 μg/gm (ppm); in series [1] (Diet 5, 0.10 mM/kg diet), 2 μg/gm (ppm). In addition, the “Carotenoid content of liver” value is on record as 106 μg/gm (ppm) in series [2] (setting [3]); 48 μg/gm (ppm) in series [2] (setting [4]); 50 μg/gm (ppm) in series [2] (setting [5]); 46 μg/gm (ppm) in series [2] (setting [6]); 33 μg/gm (ppm) in series [2] (setting [7]); 30 μg/gm (ppm) in series [2] (setting [8]). The results for the “Carotenoid content of liver” value in series [2] (setting [9]), in series [2] (setting [10]) and in series [2] (setting [11]) were 5 μg/gm (ppm), 34 μg/gm (ppm) and 10 μg/gm (ppm), respectively.

Regarding `CC(C)=CCC/C(C)=C/C=C/C(C)=C/C=C/C(C)=C/C=C/C=C(C)/C=C/C=C(C)/C=C/C1C(C(C)(C)O)CCC1(C)O` (stereo not drawn) [2,6 cyclolycopene-1,5-diol], the “Carotenoid content of diet” value in series [1] (Diet 1, 2.5 mM/kg diet) is 2 μg/gm (ppm); in series [1] (Diet 2, 1.0 mM/kg diet), 1.4 μg/gm (ppm); in series [1] (Diet 3, 0.5 mM/kg diet) it was 0.76 μg/gm (ppm); in series [1] (Diet 4, 0.25 mM/kg diet), 0.46 μg/gm (ppm); in series [1] (Diet 5, 0.10 mM/kg diet), 0.14 μg/gm (ppm). Also, the “Carotenoid content of liver” value was 9 μg/gm (ppm) in series [2] (setting [3]); 5 μg/gm (ppm) in series [2] (setting [4]); 7 μg/gm (ppm) in series [2] (setting [5]); 4 μg/gm (ppm) in series [2] (setting [6]); 6 μg/gm (ppm) in series [2] (setting [7]); 4 μg/gm (ppm) in series [2] (setting [8]). The “Carotenoid content of liver” value was “.39 μg/gm (ppm)” in series [2] (setting [9]); 4 μg/gm (ppm) in series [2] (setting [10]); “.28 μg/gm (ppm)” in series [2] (male rats, Diet 4, 0.25 mM/kg diet); “.34 μg/gm (ppm)” in series [2] (setting [11]).

With `CC(C)=CCC/C(C)=C/CC/C(C)=C/C=C/C(C)=C/C=C/C=C(C)/C=C/C=C(\C)CC/C=C(\C)CCC=C(C)C` [zeta-carotene], the “Carotenoid content of diet” value in series [1] (Diet 1, 2.5 mM/kg diet) is given as 1 μg/gm (ppm); in series [1] (Diet 2, 1.0 mM/kg diet), 9 μg/gm (ppm); in series [1] (Diet 3, 0.5 mM/kg diet) it was 4 μg/gm (ppm); in series [1] (Diet 4, 0.25 mM/kg diet), 2 μg/gm (ppm); in series [1] (Diet 5, 0.10 mM/kg diet), 0 μg/gm (ppm).

The record behind these values is patent US20040191297A1, “Carotenoid formulation” (priority 1997, published 2004).
